# Experimental data as given in patent US12077503B2, “Substituted cyclic amides and their use as herbicides” (FMC CORPORATION, priority 2015, dated 2024).
# Experiments:
# Type in all cases: in vivo
# [1] = tested on: ragweed (common ragweed, Ambrosia elatior); test: Test A preemergence; conditions: Ambrosia artemisiifolia, pre-emergence, 240 h, 0 to 100 scale where 0 is no effect and 100 is complete control, read-out: Ragweed plant response rating
# Summary of the method: (§1)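 Compounds were formulated in a non-phytotoxic solvent mixture with surfactant and applied as a preemergence directed soil spray after seeding, or sprayed postemergence over plants 2 to 10 cm tall at the one- to two-leaf stage. Evaluation after about 10 d compared treated with untreated controls, using a scale from 0 (no effect) to 100 (complete control).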
# [2] = tested on: barnyardgrass (Echinochloa crus-galli); test: Test A preemergence; conditions: Echinochloa crus-galli, pre-emergence, 240 h, 0 to 100 scale where 0 is no effect and 100 is complete control, read-out: Barnyardgrass plant response rating
# Summary of the method: as §1
# [3] = tested on: ryegrass, Italian (Italian ryegrass, Lolium multiflorum); test: Test A preemergence; conditions: Lolium multiflorum, pre-emergence, 240 h, 0 to 100 scale where 0 is no effect and 100 is complete control, read-out: Ryegrass, Italian plant response rating
# Summary of the method: as §1
# [4] = tested on: pigweed (Amaranthus retroflexus); test: Test A preemergence; conditions: Amaranthus retroflexus, pre-emergence, 240 h, 0 to 100 scale where 0 is no effect and 100 is complete control, read-out: Pigweed plant response rating
# Kochia (Kochia scoparia) [5] = test: Test A preemergence; conditions: Bassia scoparia, pre-emergence, 240 h, 0 to 100 scale where 0 is no effect and 100 is complete control, read-out: Kochia plant response rating
# Summary of the method: as §1
# [6] = tested on: giant foxtail (Setaria faberii); test: Test A preemergence; conditions: Setaria faberi, pre-emergence, 240 h, 0 to 100 scale where 0 is no effect and 100 is complete control, read-out: Foxtail, Giant plant response rating
# Summary of the method: as §1
# [7] = tested on: ragweed (common ragweed, Ambrosia elatior); test: Test A postemergence; conditions: Ambrosia artemisiifolia, post-emergence, 240 h
# Summary of the method: as §1
# [8] = tested on: barnyardgrass (Echinochloa crus-galli); test: Test A postemergence; conditions: Echinochloa crus-galli, post-emergence, 240 h
# Summary of the method: as §1
# [9] = tested on: ryegrass, Italian (Italian ryegrass, Lolium multiflorum); test: Test A postemergence; conditions: Lolium multiflorum, post-emergence, 240 h
# Summary of the method: as §1
# [10] = tested on: pigweed (Amaranthus retroflexus); test: Test A postemergence; conditions: Amaranthus retroflexus, post-emergence, 240 h
# Summary of the method: as §1
# [11] = tested on: blackgrass (Alopecurus myosuroides); test: Test A postemergence; conditions: Alopecurus myosuroides, post-emergence, 240 h
# Summary of the method: as §1
# [12] = tested on: wheat (Triticum aestivum); test: Test A postemergence; conditions: Triticum aestivum, post-emergence, 240 h
# Summary of the method: as §1
# Kochia (Kochia scoparia) [13] = test: Test A postemergence; conditions: Bassia scoparia, post-emergence, 240 h
# Summary of the method: as §1
# [14] = tested on: Galium (catchweed bedstraw, Galium aparine); test: Test A postemergence; conditions: Galium, post-emergence, 240 h
# Summary of the method: as §1
# [15] = tested on: giant foxtail (Setaria faberii); test: Test A postemergence; conditions: Setaria faberi, post-emergence, 240 h
# Summary of the method: as §1
# corn (Zea mays) = test: Test A postemergence; conditions: Zea mays, post-emergence, 240 h
# Summary of the method: as §1
# [16] = tested on: ducksalad (Heteranthera limosa); test: Test B flooded paddy test; conditions: Heteranthera limosa, 250 g ai/ha, Flood; 0 to 100 scale where 0 is no effect and 100 is complete control; read-out: Ducksalad plant response rating
# Summary of the method: (§2)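 Flooding to 3 cm over soil accompanied treatment, which consisted of adding compound to the standing water around 2-leaf plants; depth was then maintained. Visual assessment versus controls followed at 13 to 15 d (scale 0–100, 0 meaning no effect).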
# [17] = tested on: barnyardgrass (Echinochloa crus-galli); test: Test B flooded paddy test; conditions: Echinochloa crus-galli, 250 g ai/ha, Flood; 0 to 100 scale where 0 is no effect and 100 is complete control; read-out: Barnyardgrass plant response rating
# Summary of the method: as §2
# rice (Oryra sativa) = test: Test B flooded paddy test; conditions: Oryza sativa, 250 g ai/ha, Flood; 0 to 100 scale where 0 is no effect and 100 is complete control; read-out: Rice plant response rating
# Summary of the method: as §2
# [18] = tested on: sedge, umbrella (small-flower umbrella sedge, Cyperus difformis); test: Test B flooded paddy test; conditions: Cyperus difformis, 250 g ai/ha, Flood; 0 to 100 scale where 0 is no effect and 100 is complete control; read-out: Sedge, Umbrella plant response rating
# Summary of the method: as §2
# [19] = 125 g ai/ha, preemergence, approx. 10 d
structure (smiles),measurement,setting,value
C=C(C)c1ccc([C@H]2CN(C)C(=O)[C@@H]2C(=O)Nc2cccc(F)c2F)cc1 [Compound 1149],pest or weed control at 31 g/ha,"[1]; 31 g ai/ha, Preemergence",0%
same,pest or weed control at 125 g/ha,[1]; [19],0%
same,pest or weed control at 31 g/ha,"[2]; 31 g ai/ha, Preemergence",70%
same,pest or weed control at 125 g/ha,[2]; [19],90%
same,pest or weed control at 31 g/ha,"[3]; 31 g ai/ha, Preemergence",0%
same,pest or weed control at 125 g/ha,[3]; [19],20%
same,pest or weed control at 31 g/ha,"[4]; 31 g ai/ha, Preemergence",0%
same,pest or weed control at 125 g/ha,[4]; [19],40%
same,pest or weed control at 31 g/ha,"Kochia (Kochia scoparia) [5]; 31 g ai/ha, Preemergence",0%
same,pest or weed control at 125 g/ha,Kochia (Kochia scoparia) [5]; [19],20%
same,pest or weed control at 31 g/ha,"[6]; 31 g ai/ha, Preemergence",80%
same,pest or weed control at 125 g/ha,[6]; [19],90%
same,pest or weed control at 125 g/ha,"[7]; 125 g ai/ha, postemergence, visual injury vs untreated controls after approx. 10 d, 0 = no effect, 100 = complete control, read-out: Ragweed plant response rating (0 to 100 scale)",0%
same,pest or weed control at 31 g/ha,"[7]; Postemergence, 31 g ai/ha, visual injury after approx. 10 d, 0 to 100 scale, 0 no effect, 100 complete control, read-out: Plant response rating, Ragweed",0%
same,pest or weed control at 125 g/ha,"[8]; 125 g ai/ha, postemergence, visual injury on 0 to 100 scale (0 no effect, 100 complete control), approx. 10 d, read-out: Barnyardgrass plant response rating",90%
same,pest or weed control at 31 g/ha,"[8]; Postemergence, 31 g ai/ha, visual injury after approx. 10 d, 0 to 100 scale, 0 no effect, 100 complete control, read-out: Plant response rating, Barnyardgrass",50%
same,pest or weed control at 125 g/ha,"[9]; 125 g ai/ha, postemergence, visual injury vs untreated controls after approx. 10 d, 0 = no effect, 100 = complete control, read-out: Ryegrass, Italian plant response rating (0 to 100 scale)",20%
same,pest or weed control at 31 g/ha,"[9]; Postemergence, 31 g ai/ha, visual injury after approx. 10 d, 0 to 100 scale, 0 no effect, 100 complete control, read-out: Plant response rating, Ryegrass, Italian",0%
same,pest or weed control at 125 g/ha,"[10]; 125 g ai/ha, postemergence, visual injury vs untreated controls after approx. 10 d, 0 = no effect, 100 = complete control, read-out: Pigweed plant response rating (0 to 100 scale)",0%
same,pest or weed control at 31 g/ha,"[10]; Postemergence, 31 g ai/ha, visual injury after approx. 10 d, 0 to 100 scale, 0 no effect, 100 complete control, read-out: Plant response rating, Pigweed",0%
same,pest or weed control at 125 g/ha,"[11]; 125 g ai/ha, postemergence, visual injury on 0 to 100 scale (0 no effect, 100 complete control), approx. 10 d, read-out: Blackgrass plant response rating",0%
same,pest or weed control at 31 g/ha,"[11]; Postemergence, 31 g ai/ha, visual injury after approx. 10 d, 0 to 100 scale, 0 no effect, 100 complete control, read-out: Plant response rating, Blackgrass",0%
same,plant injury at 125 g/ha,"[12]; 125 g ai/ha, postemergence, visual injury vs untreated controls after approx. 10 d, 0 = no effect, 100 = complete control, read-out: Wheat plant response rating (0 to 100 scale)",0%
same,plant injury at 31 g/ha,"[12]; Postemergence, 31 g ai/ha, visual injury after approx. 10 d, 0 to 100 scale, 0 no effect, 100 complete control, read-out: Plant response rating, Wheat",0%
same,pest or weed control at 125 g/ha,"Kochia (Kochia scoparia) [13]; 125 g ai/ha, postemergence, visual injury on 0 to 100 scale (0 no effect, 100 complete control), approx. 10 d, read-out: Kochia plant response rating",30%
same,pest or weed control at 31 g/ha,"Kochia (Kochia scoparia) [13]; Postemergence, 31 g ai/ha, visual injury after approx. 10 d, 0 to 100 scale, 0 no effect, 100 complete control, read-out: Plant response rating, Kochia",0%
same,pest or weed control at 125 g/ha,"[14]; 125 g ai/ha, postemergence, visual injury on 0 to 100 scale (0 no effect, 100 complete control), approx. 10 d, read-out: Galium plant response rating",50%
same,pest or weed control at 31 g/ha,"[14]; Postemergence, 31 g ai/ha, visual injury after approx. 10 d, 0 to 100 scale, 0 no effect, 100 complete control, read-out: Plant response rating, Galium",20%
same,pest or weed control at 125 g/ha,"[15]; 125 g ai/ha, postemergence, visual injury on 0 to 100 scale (0 no effect, 100 complete control), approx. 10 d, read-out: Foxtail, Giant plant response rating",80%
same,pest or weed control at 31 g/ha,"[15]; Postemergence, 31 g ai/ha, visual injury after approx. 10 d, 0 to 100 scale, 0 no effect, 100 complete control, read-out: Plant response rating, Foxtail, Giant",40%
same,plant injury at 125 g/ha,"corn (Zea mays); 125 g ai/ha, postemergence, visual injury on 0 to 100 scale (0 no effect, 100 complete control), approx. 10 d, read-out: Corn plant response rating",0%
same,"Corn plant response rating (crop injury, 0 = no effect, 100 = complete kill) at 31 g/ha","corn (Zea mays); Postemergence, 31 g ai/ha, visual injury after approx. 10 d, 0 to 100 scale, 0 no effect, 100 complete control",0%
same,pest or weed control at 250 g/ha,[16],75%
same,pest or weed control at 250 g/ha,[17],45%
same,pest or weed control at 250 g/ha,rice (Oryra sativa),30%
same,pest or weed control at 250 g/ha,[18],0%
